We go through 18 compounds from patent US20060263895A1, “Method for monitoring the stereoselectivity and relative rate of organic chemical reactions” (priority 2005, published 2006).

Experiment [1] can be described thus: Double cuvette-ISES (in situ enzymatic screening) of Co(III)-salen mediated HKR of (±)-propylene oxide. Particulars: for % ee of the 1,2-propanediol product, as predicted by double-cuvette ISES (upper number): bilayer of pH 8.6 buffer over 7.2 M epoxide in CHCl3, 0.25 mol % catalyst, 15-35 min, + = (S), − = (R). Here is the method:
Aqueous reporting layers. containing TBADH/NADP+ (cuvette 1) and HLADH/NAD+ (cuvette 2), respectively, are then added. The increase in absorbance at 340 nm can be followed for several such sets in parallel by UV-vis spectrophotometry. The kinetic data are then used to make the double-cuvette ISES predictions.
A general procedure for double cuvette-ISES to estimate both enantioselectivities and relative rates for an array of catalysts being screened in parallel is presented below. The hydrolytic kinetic resolution (HKR) of (±) propylene oxide was chosen as model reaction.
Typically, quartz cuvettes with one cm light paths and with nominal one mL volumes were used. For each catalyst, a two cuvette screen was performed, with cuvette A containing HLADH, as (S)-propanediol-selective reporting enzyme, and cuvette B containing TBADH, as a (R)-propanediol-selective reporting enzyme. For each cuvette, the final volume was 800 μL (300 μL of organic layer; 500 μL of aqueous layer).
Both cuvettes A and B had the following composition: 150 μL (2.15 mmol) of (±)-propylene oxide (7.2 M in organic layer), 150 μL of CHCl3 and 0.25 mol % Co(III)-salen catalyst. The total organic layer volume was maintained as 300 μL in all catalyst screens.
(i) Cuvette A: 0.35 U HLADH (17.6 μL from a stock solution (0.02U/μL)), 7.2 mM β-NAD+(16.5 μL from a 220 mM stock) and 465.8 μL of 50 mM sodium pyrophosphate buffer, pH 8.8. The final pH was 8.6.
(ii) Cuvette B: 0.35 U TBADH (15.8 μL from a stock solution (0.022U/μL)) of, 2.2 mM β-NADP+ (5 μL from a 220 mM stock) and 479.5 μL of 50 mM sodium pyrophosphate buffer, pH 8.8. The final pH was 8.6. The total volume of the aqueous layer was maintained as 500 μL in both cuvettes in all ISES experiments.
C. Step by Step Protocol: A catalyst stock solution (22 μmol of catalyst in 620 μL CHCl3) was made up in a 1.5 ml microcentrifuge tube, and stored on ice, along with a stock of (±)-propylene oxide, in a separate tube. The organic layers were prepared by briefly vortexing 150 μL (5.4 μmol, 0.25 mol %) of the catalyst stock in CHCl3 with 150 μL (2.15 mmol) of (±)-propylene oxide in iced microcentrifuge tubes. These were loaded into 1 mL quartz cuvettes using precooled (refrigerator), disposable 1 mL syringes. The aqueous layers were then layered on top of the organic layers, by syringe, down the walls of the cuvette.

Experiment [2] is described as follows: HKR of (±)-propylene oxide under standard neat 'Jacobsen conditions' (NMR conversion, chiral HPLC ee). Particulars: for NMR conv. (time) / % ee (HPLC): loading 0.25 mol %; for % ee of the 1,2-propanediol product, as observed by chiral HPLC (lower number): neat propylene oxide, 0.55 equiv. H2O, 0.25 mol % catalyst, 3 h reaction time. Here is the method:
Salens in the fully synthetic, 42 member focused library that led to catalysts with appreciable activity, as indicated by double cuvette-ISES, were also evaluated ‘outside of the cuvette,’ under conditions more typically employed in HKR reactions. Specifically, these Co(III)-salen catalysts were evaluated in the HKR of (±)-propylene oxide, under neat conditions, similar to those described by Jacobsen and coworkers. Reactions were arbitrarily stopped after 3 hours, to obtain the enantiopurity of the 1,2-propanediol product at relatively early reaction times, for comparison with ISES predictions.
A typical procedure follows: To the Co(III)-salen catalyst derived from 7e (5.4 mg, 5.4 μmol, 0.25 mol %) and (±)-propylene oxide (125 mg, 2.15 mmol) at 0° C., was added water (21 μL, 1.18 mmol, 0.55 equiv.). The reaction mixture was securely capped, and allowed to warm to room temperature and stirred, most commonly for a total of 3 hours. Percent conversion at 3 hours was evaluated by 1H NMR of an aliquot (cooled to 0° C. for the transfer), in CDCl3. In most of these cases, the conversion was low enough after 3 hours, that the unreacted epoxide (bp 32° C.) was of relatively low ee, and was therefore removed by evaporation under aspirator vacuum. When the conversion was less than 5% by NMR after 3 hours, reactions were continued for longer times.
Upon termination of the reaction, the diol product was isolated by Kugelrohr distillation (˜120° C.-oven temp; 0.1 torr). To determine ee, the isolated diol was derivatized using p-bromobenzoyl imidazole (2.2 equiv.) in THF in the presence of NaH (4 equiv.) at room temperature for 5 min. The bis(p-bromobenzoate) esters obtained following sequential washes with 1 N HCl and saturated sodium bicarbonate, were of sufficient purity to be used directly for chiral HPLC analysis (Chiralcel OD, 99% […]). [drawing 23] [drawing 24] [drawing 25] [drawing 26] [drawing 27]

Where [3] appears, read: reaction stopped at the time given (mostly 3 h), + = (S), − = (R).

As for `Oc1ccc2ccccc2c1C=NC[C@@H](N=Cc1c(O)ccc2ccccc12)c1ccccc1` [Salen 2c, N,N′-Bis(2′-hydroxy-1′-naphthylidene)-(1S)-phenyl-1,2-ethylenediamine], the ISES signal result in experiment [1] (over 35 min) was “§ (These catalysts gave ISES signals <20 mAbs min−1 over 35 min.)”. `Oc1c(C=NC[C@@H](N=Cc2ccc3ccccc3c2O)c2ccccc2)ccc2ccccc12` [Salen 2d, N,N′-Bis(1′-hydroxy-2′-naphthylidene)-(1S)-phenyl-1,2-ethylenediamine]: in experiment [2] (22 h), the “NMR conv. (time)” value was 19 (22 h) %. Moreover, in experiment [2] (setting [3]), the “% ee (HPLC)” value was −54 (R) % ee. The “% ee of the 1,2-propanediol product, as observed by chiral HPLC (lower number)” value (“% ee … (lower number)” for short) in experiment [2] (+ = (S), − = (R)) is given as −54 % ee. In addition, the “% ee of the 1,2-propanediol product, as predicted by double-cuvette ISES (upper number)” value in experiment [1] is given as −15 % ee.

With `Oc1c(I)cc(I)cc1C=NC[C@@H](N=Cc1cc(I)cc(I)c1O)c1ccccc1` [Salen 2e, N,N′-Bis(3′,5′-diiodosalicylidene)-(1S)-phenyl-1,2-ethylenediamine], the “NMR conv. (time)” value in experiment [2] (3 h) is 26 (3 h) %. Moreover, the “% ee (HPLC)” value in experiment [2] (setting [3]) is on record as −41 (R) % ee. Besides, the “% ee … (lower number)” value in experiment [2] (+ = (S), − = (R)) is given as −41 % ee. Moreover, in experiment [1], the “% ee of the 1,2-propanediol product, as predicted by double-cuvette ISES (upper number)” value is “+4 % ee”.

For the compound `Oc1cc(OCc2ccccc2)ccc1C=NC[C@@H](N=Cc1ccc(OCc2ccccc2)cc1O)c1ccccc1` [Salen 2f, N,N′-Bis(4′-benzyloxysalicylidene)-(1S)-phenyl-1,2-ethylenediamine], the ISES signal entry in experiment [1] (over 35 min) is listed as “§ (These catalysts gave ISES signals <20 mAbs min−1 over 35 min.)”. Take `CC1(C)CCN2CCC(C)(C)c3c(O)c(C=NC[C@@H](N=Cc4cc5c6c(c4O)C(C)(C)CCN6CCC5(C)C)c4ccccc4)cc1c32` [Salen 2g, N,N′-Bis(8′-hydroxy-1′,1′,7′,7′-tetramethyljulolidinyl-9′-methylidene)-(1S)-phenyl-1,2-ethylenediamine]: the “% ee (HPLC)” value in experiment [2] (@3 h) is on record as −71@3 h, % ee; in experiment [2] (@20 h), −65@20 h (R) % ee. In addition, the “% ee … (lower number)” value in experiment [2] (+ = (S), − = (R)) is listed as −71 % ee. Besides, the “% ee of the 1,2-propanediol product, as predicted by double-cuvette ISES (upper number)” value in experiment [1] is reported as −41 % ee. Also, the “ISES rate in the HLADH cuvette” value in experiment [1] (over 35 min) was found to be 14.9 mAbs min−1. In the case of `Oc1c(I)cc(I)cc1C=NC[C@H](Cc1ccccc1)N=Cc1cc(I)cc(I)c1O` [Salen 3e, N,N′-Bis(3′,5′-diiodosalicylidene)-(1S)-benzyl-1,2-ethylenediamine], the ISES signal result in experiment [1] (over 35 min) is reported as “§ (These catalysts gave ISES signals <20 mAbs min−1 over 35 min.)”.

For the compound `Oc1cc(OCc2ccccc2)ccc1C=NC[C@H](Cc1ccccc1)N=Cc1ccc(OCc2ccccc2)cc1O` [Salen 3f, N,N′-Bis(4′-benzyloxysalicylidene)-(1S)-benzyl-1,2-ethylenediamine], the ISES signal result in experiment [1] (over 35 min) was “§ (These catalysts gave ISES signals <20 mAbs min−1 over 35 min.)”.

As for `Oc1ccc2ccccc2c1C=NC[C@H](Cc1cccc2ccccc12)N=Cc1c(O)ccc2ccccc12` [Salen 4c, N,N′-Bis(2′-hydroxy-1′-naphthylidene)-(1S)-(α-naphthylmethyl)-1,2-ethylenediamine], the ISES signal result in experiment [1] (over 35 min) is “§ (These catalysts gave ISES signals <20 mAbs min−1 over 35 min.)”. The same measure, in the same setting: with `CC1(C)CCN2CCC(C)(C)c3c(O)c(C=NC[C@H](Cc4cccc5ccccc45)N=Cc4cc5c6c(c4O)C(C)(C)CCN6CCC5(C)C)cc1c32` [Salen 4g, N,N′-Bis(8′-hydroxy-1′,1′,7′,7′-tetramethyljulolidinyl-9′-methylidene)-(1S)-α-naphthylmethyl-1,2-ethylenediamine] the entry was “§ (These catalysts gave ISES signals <20 mAbs min−1 over 35 min.)”. Still for that read-out and setting: with `Oc1ccc2ccccc2c1C=NC[C@H](Cc1ccc2ccccc2c1)N=Cc1c(O)ccc2ccccc12` [Salen 5c] the entry was “§ (These catalysts gave ISES signals <20 mAbs min−1 over 35 min.)”; with `Oc1cc(OCc2ccccc2)ccc1C=NC[C@H](Cc1ccc2ccccc2c1)N=Cc1ccc(OCc2ccccc2)cc1O` [Salen 5f, N,N′-Bis(4′-benzyloxysalicylidene)-(1S)-(β-naphthylmethyl)-1,2-ethylenediamine], “§ (These catalysts gave ISES signals <20 mAbs min−1 over 35 min.)”. Still for that read-out and setting: with `CC1(C)CCN2CCC(C)(C)c3c(O)c(C=NC[C@H](Cc4ccc5ccccc5c4)N=Cc4cc5c6c(c4O)C(C)(C)CCN6CCC5(C)C)cc1c32` [Salen 5g, N,N′-Bis(8′-hydroxy-1′,1′,7′,7′-tetramethyljulolidinyl-9′-methylidene)-(1S)-(β-naphthylmethyl)-1,2-ethylenediamine] the entry was “§ (These catalysts gave ISES signals <20 mAbs min−1 over 35 min.)”; with `CO[C@H]1[C@@H]2OC(C)(C)O[C@@H]2COC1(CN=Cc1c(O)ccc2ccccc12)N=Cc1c(O)ccc2ccccc12` (stereo partly shown) [Salen 6c, N,N′-Bis(2′-hydroxy-1′-naphthylidene)-3-O-methyl-4,5-O-isopropylidene-1,2-dideoxy-Dfructopyranosyl-1,2-diamine], “§ (These catalysts gave ISES signals <20 mAbs min−1 over 35 min.)”. `COC1C2OC(C)(C)OC2COC1(CN=Cc1ccc2ccccc2c1O)N=Cc1ccc2ccccc2c1O` (stereo not drawn) [Salen 7d, N,N′-Bis(1′-hydroxy-2′-naphthylidene)-3-O-methyl-4,5-O-isopropylidene-1,2-dideoxy-β-Dfructopyranosyl-1,2-diamine]: in experiment [1] (over 35 min), the ISES signal result was “§ (These catalysts gave ISES signals <20 mAbs min−1 over 35 min.)”. `COC1C2OC(C)(C)OC2COC1(CN=Cc1ccc(OCc2ccccc2)cc1O)N=Cc1ccc(OCc2ccccc2)cc1O` (stereo not drawn) [Salen 7f, N,N′-Bis(4′-benzyloxysalicylidene)-3-O-methyl-4,5-O-isopropylidene-1,2-dideoxy-β-Dfructopyranosyl-1,2-diamine]: the ISES signal result in experiment [1] (over 35 min) is recorded as “§ (These catalysts gave ISES signals <20 mAbs min−1 over 35 min.)”. Same read-out and setting: with “N,N′-Bis(2′-hydroxy-1′-naphthylidene)-[1R-(1α,2α,5α)]-2-amino-7,7-dimethyl-2-bicyclo[3.3.1]heptane-ethanamine [Salen 1c]” the entry was “§ (These catalysts gave ISES signals <20 mAbs min−1 over 35 min.)”. Still for that read-out and setting: with “N,N′-Bis(4′-benzyloxysalicylidene)-[1R-(1α,2α,5α)]-2-amino-7,7-dimethyl-2-bicyclo[3.3.1]heptane-ethanamine [Salen 1f]” the entry was “§ (These catalysts gave ISES signals <20 mAbs min−1 over 35 min.)”; with “N,N′-Bis(8′-hydroxy-1′,1′,7′,7′-tetramethyljulolidine-9′-methylidene)-[1R-(1α,2α,5α)]-2-amino-7,7-dimethyl-2-bicyclo[3.3.1]heptane-ethanamine [Salen 1g]”, “§ (These catalysts gave ISES signals <20 mAbs min−1 over 35 min.)”.
